The values below come from patent US20250093330A1, “METHOD AND DEVICE FOR DRUG SCREENING” (SHANGHAI LIDE BIOTECH CO., LTD., priority 2021, published 2025).

“Also recorded” adds a separate entry of the source.

Holding throughout (assay type): in vivo, human (patient-derived), mouse host
Assay [1] relates to primary duodenal cancer cells. Put plainly: method of the present invention, drug screening on primary duodenal cancer cells from a patient. Particulars: primary tumor tissue of duodenal ampullary tumor patient, FIG. 9.
Source text: 4 to 5-week old female Nu/Nu mice was ordered from the supplier (purchased from Beijing Vital River Laboratory Animal Technology Co., Ltd.) and raised in SPF grade animal room. Before the experiment, the animal was adapted for at least three days. Freshly collected tumor samples obtained from surgery or from mouse PDX models containing tumor cells from patient were kept in a storage tube and transported to the laboratory on ice in the shortest possible time. After removing the non-tumor tissues and necrotic tissues in the biosafety cabinet, the tumor samples were cut into cubes of 1-3 mm^2, rinsed with HBSS. […] Collected cell suspension and centrifuged the suspension at 1000 rpm for 3 minutes to remove supernatant, and re-suspended in PBS containing 1% PBS; counted cell numbers and adjusted cell density to 1×10^8/ml. […] Counted the number of cells, and adjusted the cell density to 1-10×10^5/ml. […] 5-14 day after administration, the mice were killed and cell viability was detected by quantitative analysis of ATP by CellTiter-Glo luminescence in the modified polyvinylidene fluoride tubes. According to the viability of tumor cells in the control group, the percentages of cell viable proliferation (t/c %) in the experiment groups were calculated, and then the efficacy of the corresponding drugs was evaluated. […] The viability of the tumor cells was measured.
Assay [2] has as its system patient-derived gastric cancer cells from GAPF157. The assay can be described thus: traditional PDX method, mouse PDX model GAPF157. Particulars: FIG. 4. The source says:
(§1) The PDX model well maintains the biological characteristics the of primary tumor cells of a patient. The model is obtained by transplanting a fresh tumor tissue of a patient into an immune deficient mouse (e.g. a nude mouse or a severe combined immune deficiency (SCID) mouse). Such models maintain the genetic characteristics of the patient as well as tumor heterogeneity. Presently, the major difficulty of using PDX model for individualized precision medical treatment is the lengthy time period spent on modelling and sensitivity test, and the low success rate for modelling. For example, primary cell transplantation takes 2-3 months, and the drug sensitivity test takes 3-4 months. In addition, PDX modelling requires a high level of technical skills. Surgeons, histologists and researchers need to cooperate closely after the tumor sample is obtained from the patient. Therefore, how to improve the method for determining the sensitivity of tumor cells to an anti-tumor drug by using a PDX model becomes an urgent issue. The method for PDX mouse modelling is known in the art. […] The sensitivity of the patient-derived gastric cancer cells in GAPF155 to S-1 was detected by the traditional PDX method and the method of the present invention (FIG. 4 and FIG. 5).

Assay [3] shares this test system. Put plainly: method of the present invention (implanted PVDF tube, CellTiter-Glo ATP viability), GAPF157 cells. Particulars: FIG. 5. As to the method: The viability of the tumor cells was measured. Mouse PDX model […] was obtained by implanting primary gastric cancer cells into mice. After 2 months of feeding, patient-derived gastric cancer cells were obtained from GAPF157. The sensitivity of the patient-derived gastric cancer cells in […] to S-1 was detected by the traditional PDX method and the method of the present invention (FIG. 4 and FIG. 5).
Background: In ATP-based viability assays light output follows the ATP content of the culture.

The test system of assay [4] is patient-derived gastric cancer cells in GAPF155. The assay can be described thus: method of the present invention (implanted PVDF tube, CellTiter-Glo ATP viability), GAPF155 cells. Particulars: FIG. 3. Here is the method:
The viability of the tumor cells was measured. Mouse PDX model GAPF155 was obtained by implanting primary gastric cancer cells into mice. After 2 months of feeding, patient-derived gastric cancer cells were obtained from GAPF155. The sensitivity of the patient-derived gastric cancer cells in GAPF155 to S-1 was detected by the traditional PDX method and the method of the present invention (FIG. 2 and FIG. 3).

For assay [5] the test system is unchanged. Put plainly: traditional PDX method, mouse PDX model GAPF155. Particulars: FIG. 2.
Source text: as §1, with “(FIG. 2” for “(FIG. 4”, “FIG. 3).” for “FIG. 5).”

Take `Nc1ccn([C@@H]2O[C@H](CO)[C@@H](O)C2(F)F)c(=O)n1` [gemcitabine]: the “response to drug in drug screening” value in assay [1] was “well responded”.
Take Tegafur [S-1]: the “sensitivity of the tumor cells to the drug / anti-tumor activity” value in assay [2], in assay [3], in assay [4] and in assay [5] was “sensitive; also recorded: good anti-tumor activity” in each case.
